target: wild-type human cardiac sodium channel, hNav1.5 (Homo sapiens, UniProt Q14524); experiment: Late INa screening assay (QPatch whole cell patch clamp, HEK293); format: cell-based; settings: HEK293, percent block of late INa; compound at 1 μM; 10 μM Tefluthrin; read-out: Late INa 1 μM
Description: The late sodium current (Late INa) and peak sodium current (Peak INa) assays are performed on an automated electrophysiology platform, QPatch 16× (Sophion Bioscience, Copenhagen, Denmark), which uses the whole cell patch clamp technique to measure currents through the cell membrane of up to 16 cells at a time. The assay uses an HEK293 (human embryonic kidney) cell line heterologously expressing the wild-type human cardiac sodium channel, hNav1.5, purchased from Millipore (Billerica, Mass.). No beta subunits were coexpressed with the Na channel alpha subunit. Cells are maintained with standard tissue culture procedures and stable channel expression is maintained with 400 μg/mL Geneticin in the culture medium. Cells isolated for use on QPatch are incubated for 5 minutes in Detachin 1×(Genlantis, San Diego, USA) at 37° C. to ensure that 80-90% of the cells are single and not part of a cell cluster. Experiments are carried out at 23-25° C.
For both the Late INa and Peak INa assays, series resistance compensation is set to 100% and series resistance and whole-cell compensation are performed automatically. Currents are digitized at 25 kHz and low-pass filtered at 12 kHz and 10 kHz for the late and peak INa assays, respectively. Currents through open sodium channels are automatically recorded and stored in the Sophion Bioscience Oracle database (Sophion Bioscience, Copenhagen, Denmark). Analysis is performed using QPatch Assay and database software and data are compiled in Excel.
Compound stocks are routinely made by the Gilead Sample Bank in plastic vials to 10 mM in dimethyl sulfoxide (DMSO). In some cases, when compounds are not soluble in DMSO, they are made in 100% ethanol. Stocks are sonicated as necessary. The extracellular solution for screening Late INa is composed of: 140 mM NaCl, 4 mM KCl, 1.8 mM CaCl2, 0.75 mM MgCl2 and 5 mM HEPES with pH adjusted to 7.4 using NaOH. The intracellular solution used to perfuse the inside of the cells for both the Late INa and Peak INa assays contains: 120 mM CsF, 20 mM CsCl, 5 mM EGTA, 5 mM HEPES and pH adjusted to 7.4 with CsOH. Compounds are diluted in extracellular solution to 1 μM in glass vials and then transferred to glass well plates before robotic addition to the cells. The 0 mM Na extracellular solution (0Na-ECF) used at the end of each experiment for the Late INa and Peak INa assays to measure baseline current contains: 140 mM N-methyl-D-glucamine; 4 mM KCl; 1.8 mM CaCl2; 0.75 mM MgCl2; 5 mM HEPES and pH was adjusted to 7.4 with HCl.
For the Late INa assay, sodium channels are activated every 10 seconds (0.1 Hz) by depolarizing the cell membrane to −20 mV for 250 milliseconds (ms) from a holding potential of −120 mV. In response to a −20 mV voltage step, typical hNav1.5 sodium currents activate rapidly to a peak negative current and then inactivate nearly completely within 3-4 ms.
Compounds were tested to determine their activity in blocking the late sodium current. Late INa was generated by adding 10 μM Tefluthrin (pyrethroid) to the extracellular solution while recording Na currents. […] ATX-II and tefluthrin occupy distinct, non-overlapping binding sites and modify Na^+ channel function differently to increase late INa. […] After establishing the whole cell recording configuration, late INa activator is added to each well 4 times over a 16-17 minute period so that the late component of the Na current reaches a stable value.
Results are reported as percent block of late INa.

Sequence of wild-type human cardiac sodium channel, hNav1.5 (Q14524 whole entry): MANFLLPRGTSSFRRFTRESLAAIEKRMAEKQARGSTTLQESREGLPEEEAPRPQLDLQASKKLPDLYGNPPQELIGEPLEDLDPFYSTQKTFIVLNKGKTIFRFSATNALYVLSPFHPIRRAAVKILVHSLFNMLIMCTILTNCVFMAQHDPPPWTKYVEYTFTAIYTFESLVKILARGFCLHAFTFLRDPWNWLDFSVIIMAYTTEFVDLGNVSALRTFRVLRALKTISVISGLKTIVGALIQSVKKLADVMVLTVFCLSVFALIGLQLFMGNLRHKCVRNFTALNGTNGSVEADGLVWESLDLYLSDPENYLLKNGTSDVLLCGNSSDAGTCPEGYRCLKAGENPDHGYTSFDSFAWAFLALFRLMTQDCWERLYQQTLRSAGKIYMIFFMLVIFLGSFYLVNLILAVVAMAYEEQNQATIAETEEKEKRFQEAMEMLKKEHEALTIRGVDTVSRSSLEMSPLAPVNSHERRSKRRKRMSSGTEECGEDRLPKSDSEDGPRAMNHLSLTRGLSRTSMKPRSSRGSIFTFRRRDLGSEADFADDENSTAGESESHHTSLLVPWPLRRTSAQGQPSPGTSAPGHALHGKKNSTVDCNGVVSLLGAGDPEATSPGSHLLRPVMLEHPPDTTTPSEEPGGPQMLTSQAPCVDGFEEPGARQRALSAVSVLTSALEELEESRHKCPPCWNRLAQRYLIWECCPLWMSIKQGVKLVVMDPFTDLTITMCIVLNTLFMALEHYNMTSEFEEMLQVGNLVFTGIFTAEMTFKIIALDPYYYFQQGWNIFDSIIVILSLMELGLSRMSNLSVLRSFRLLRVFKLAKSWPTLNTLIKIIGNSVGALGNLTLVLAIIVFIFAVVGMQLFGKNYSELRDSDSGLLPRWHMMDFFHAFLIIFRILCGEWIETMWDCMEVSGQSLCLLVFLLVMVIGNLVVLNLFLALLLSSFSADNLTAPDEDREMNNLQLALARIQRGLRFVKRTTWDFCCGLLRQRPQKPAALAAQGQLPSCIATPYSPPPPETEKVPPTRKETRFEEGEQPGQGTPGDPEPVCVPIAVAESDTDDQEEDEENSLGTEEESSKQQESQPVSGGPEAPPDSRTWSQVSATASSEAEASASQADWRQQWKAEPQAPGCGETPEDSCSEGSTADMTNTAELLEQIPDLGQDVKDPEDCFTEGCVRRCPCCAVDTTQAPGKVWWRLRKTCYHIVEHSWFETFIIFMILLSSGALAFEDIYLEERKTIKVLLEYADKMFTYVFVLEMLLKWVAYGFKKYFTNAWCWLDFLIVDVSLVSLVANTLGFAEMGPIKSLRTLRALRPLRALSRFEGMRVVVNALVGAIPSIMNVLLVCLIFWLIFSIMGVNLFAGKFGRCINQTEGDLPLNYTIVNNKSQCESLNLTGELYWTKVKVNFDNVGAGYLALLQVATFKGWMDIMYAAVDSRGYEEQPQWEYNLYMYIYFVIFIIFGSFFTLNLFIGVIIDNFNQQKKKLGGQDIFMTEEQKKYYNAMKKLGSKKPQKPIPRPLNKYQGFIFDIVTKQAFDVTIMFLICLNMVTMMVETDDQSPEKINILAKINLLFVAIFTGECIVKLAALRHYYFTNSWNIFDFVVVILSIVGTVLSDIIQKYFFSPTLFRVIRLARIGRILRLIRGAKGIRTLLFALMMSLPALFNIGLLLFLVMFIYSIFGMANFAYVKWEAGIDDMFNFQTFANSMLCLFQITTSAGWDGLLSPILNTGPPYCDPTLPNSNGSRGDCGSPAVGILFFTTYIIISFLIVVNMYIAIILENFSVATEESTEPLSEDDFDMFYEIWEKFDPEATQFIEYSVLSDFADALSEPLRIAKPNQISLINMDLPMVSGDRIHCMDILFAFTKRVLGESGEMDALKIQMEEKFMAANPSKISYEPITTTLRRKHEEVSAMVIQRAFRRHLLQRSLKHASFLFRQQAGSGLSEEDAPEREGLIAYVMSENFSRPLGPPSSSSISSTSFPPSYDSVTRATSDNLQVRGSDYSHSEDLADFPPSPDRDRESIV

Structure (SMILES) | inhibition at 1 µM
N[C@@H]1C[C@H]2COc3ccc(-c4ccc(C(F)(F)F)cc4)cc3C(=O)N2C1 [II-21, (2R,11aS)-2-amino-7-(4-(trifluoromethyl)phenyl)-2,3,11,11a-tetrahydrobenzo[f]pyrrolo[2,1-c][1,4]oxazepin-5(1H)-one] | 18%
CCN1CCN2C(=O)c3cc(-c4ccc(C(F)(F)F)cc4)ccc3OC[C@H]2C1 [II-23, (R)-2-ethyl-8-(4-(trifluoromethyl)phenyl)-3,4,12,12a-tetrahydro-1H-benzo[f]pyrazino[2,1-c][1,4]oxazepin-6(2H)-one] | 25%
O=C1c2cc(-c3ccc(C(F)(F)F)cc3)ccc2OC[C@@H]2CN(CC(F)F)CCN12 [II-24, (S)-2-(2,2-difluoroethyl)-8-(4-(trifluoromethyl)phenyl)-3,4,12,12a-tetrahydro-1H-benzo[f]pyrazino[2,1-c][1,4]oxazepin-6(2H)-one] | 23%
CCN1CCN2C(=O)c3cc(-c4ccc(C(F)(F)F)cc4)ccc3OC[C@@H]2C1 [II-25, (S)-2-ethyl-8-(4-(trifluoromethyl)phenyl)-3,4,12,12a-tetrahydro-1H-benzo[f]pyrazino[2,1-c][1,4]oxazepin-6(2H)-one] | 25%
CC1(C)COC(C)(CCN2CCOc3ccc(-c4ccc(OC(F)(F)F)cc4)cc3C2=O)OC1 [II-35, 7-(4-(trifluoromethoxy)phenyl)-4-(2-(2,5,5-trimethyl-1,3-dioxan-2-yl)ethyl)-3,4-dihydrobenzo[f][1,4]oxazepin-5(2H)-one] | 25%
CC(C)(C)OC(=O)N[C@@H]1C[C@@H]2COc3ccc(-c4ccc(C(F)(F)F)cc4)cc3C(=O)N2C1 [II-39, tert-butyl (2R,11aR)-5-oxo-7-(4-(trifluoromethyl)phenyl)-1,2,3,5,11,11a-hexahydrobenzo[f]pyrrolo[2,1-c][1,4]oxazepin-2-ylcarbamate] | 16%
O=C1c2cc(-c3ccc(OC(F)(F)F)cc3)ccc2OCCN1Cc1cc(-c2ccccn2)on1 [II-41, 4-((5-(pyridin-2-yl)isoxazol-3-yl)methyl)-7-(4-(trifluoromethoxy)phenyl)-3,4-dihydrobenzo[f][1,4]oxazepin-5(2H)-one] | 17%
CCOC(=O)c1cccc(CN2CCOc3ccc(-c4ccc(OC(F)(F)F)cc4)cc3C2=O)c1 [II-43, ethyl 3-((5-oxo-7-(4-(trifluoromethoxy)phenyl)-2,3-dihydrobenzo[f][1,4]oxazepin-4(5H)-yl)methyl)benzoate] | 23%
O=C1c2cc(-c3ccc(OC(F)(F)F)cc3)ccc2OCCN1CCc1ncccn1 [II-44, 4-(2-(pyrimidin-2-yl)ethyl)-7-(4-(trifluoromethoxy)phenyl)-3,4-dihydrobenzo[f][1,4]oxazepin-5(2H)-one] | 39%
O=C1c2cc(-c3ccc(OC(F)(F)F)cc3)ccc2OCCN1Cc1ccc(F)c(F)c1 [II-45, 4-(3,4-difluorobenzyl)-7-(4-(trifluoromethoxy)phenyl)-3,4-dihydrobenzo[f][1,4]oxazepin-5(2H)-one] | 27%
N[C@H]1C[C@H]2COc3ccc(-c4ccc(C(F)(F)F)cc4)cc3C(=O)N2C1 [II-51, (2S,11aS)-2-amino-7-(4-(trifluoromethyl)phenyl)-2,3,11,11a-tetrahydrobenzo[f]pyrrolo[2,1-c][1,4]oxazepin-5(1H)-one] | 20%
O=C1c2cc(-c3ccc(C(F)(F)F)cc3)ccc2OC[C@H]2CCCN12 [II-59, (R)-7-(4-(trifluoromethyl)phenyl)-2,3,11,11a-tetrahydrobenzo[f]pyrrolo[2,1-c][1,4]oxazepin-5(1H)-one] | 15%
O=C1c2cc(-c3ccc(OC(F)(F)F)cc3)ccc2OCCN1Cc1ncc(Cl)cn1 [II-65, 4-((5-chloropyrimidin-2-yl)methyl)-7-(4-(trifluoromethoxy)phenyl)-3,4-dihydrobenzo[f][1,4]oxazepin-5(2H)-one] | 19%
O=C1c2cc(-c3ccc(OC(F)(F)F)cc3)ccc2OCCN1Cc1ccncc1 [II-67, 4-(pyridin-4-ylmethyl)-7-(4-(trifluoromethoxy)phenyl)-3,4-dihydrobenzo[f][1,4]oxazepin-5(2H)-one] | 22%
O=C1c2cc(-c3ccc(OC(F)(F)F)cc3)ccc2OCCN1Cc1nnc(C2CC2)o1 [II-68, 4-((5-cyclopropyl-1,3,4-oxadiazol-2-yl)methyl)-7-(4-(trifluoromethoxy)phenyl)-3,4-dihydrobenzo[f][1,4]oxazepin-5(2H)-one] | 17%
O=C1c2cc(-c3ccc(OC(F)(F)F)cc3)ccc2OCCN1CCOc1ncccn1 [II-69, 4-(2-(pyrimidin-2-yloxy)ethyl)-7-(4-(trifluoromethoxy)phenyl)-3,4-dihydrobenzo[f][1,4]oxazepin-5(2H)-one] | 33%
O=C1c2cc(-c3ccc(OC(F)(F)F)cc3)ccc2OCCN1Cc1cccnc1 [II-70, 4-(pyridin-3-ylmethyl)-7-(4-(trifluoromethoxy)phenyl)-3,4-dihydrobenzo[f][1,4]oxazepin-5(2H)-one] | 37%
O=C1c2cc(-c3ccc(OC(F)(F)F)cc3)ccc2OCCN1CCO [II-71, 4-(2-hydroxyethyl)-7-(4-(trifluoromethoxy)phenyl)-3,4-dihydrobenzo[f][1,4]oxazepin-5(2H)-one] | 12%
O=C1NCCOc2ccc(-c3ccc(OC(F)(F)F)cc3)cc21 [II-74, 7-(4-(trifluoromethoxy)phenyl)-3,4-dihydrobenzo[f][1,4]oxazepin-5(2H)-one] | 12%
CC(C)[C@H]1COc2ccc(-c3ccc(C(F)(F)F)cc3)cc2C(=O)N1 [II-77, (S)-3-isopropyl-7-(4-(trifluoromethyl)phenyl)-3,4-dihydrobenzo[f][1,4]oxazepin-5(2H)-one] | 21%
Cc1ccc(-c2ccc3c(c2)C(=O)N(Cc2ncccn2)CCO3)cc1 [II-87, 4-(pyrimidin-2-ylmethyl)-7-p-tolyl-3,4-dihydrobenzo[f][1,4]oxazepin-5(2H)-one] | 22%
CC(C)c1ccc(-c2ccc3c(c2)C(=O)N(Cc2ncccn2)CCO3)cc1 [II-89, 7-(4-isopropylphenyl)-4-(pyrimidin-2-ylmethyl)-3,4-dihydrobenzo[f][1,4]oxazepin-5(2H)-one] | 28%
O=C1c2cc(-c3ccc(C4CC4)cc3)ccc2OCCN1Cc1ncccn1 [II-92, 7-(4-cyclopropylphenyl)-4-(pyrimidin-2-ylmethyl)-3,4-dihydrobenzo[f][1,4]oxazepin-5 (2H)-one] | 34%
C[C@H](c1ncccn1)N1CCOc2ccc(-c3ccc(C(F)(F)F)cc3)cc2C1=O [II-95, (R)-4-(1-(pyrimidin-2-yl)ethyl)-7-(4-(trifluoromethyl)phenyl)-3,4-dihydrobenzo[f][1,4]oxazepin-5(2H)-one] | 19%
CC(C)COc1ccc(-c2ccc3c(c2)C(=O)N(Cc2ncccn2)CCO3)cc1 [II-97, 7-(4-isobutoxyphenyl)-4-(pyrimidin-2-ylmethyl)-3,4-dihydrobenzo[f][1,4]oxazepin-5 (2H)-one] | 36%
O=C1c2cc(-c3ccc(OC4CC4)cc3)ccc2OCCN1Cc1ncccn1 [II-102, 7-(4-cyclopropoxyphenyl)-4-(pyrimidin-2-ylmethyl)-3,4-dihydrobenzo[f][1,4]oxazepin-5(2H)-one] | 21%
O=C1c2cc(-c3ccc(F)cc3)ccc2OCCN1Cc1ncccn1 [II-104, 7-(4-fluorophenyl)-4-(pyrimidin-2-ylmethyl)-3,4-dihydrobenzo[f][1,4]oxazepin-5(2H)-one] | 21%
O=C1c2cc(-c3ccc(OCC(F)(F)F)c(F)c3)ccc2OCCN1Cc1ncccn1 [II-106, 7-(3-fluoro-4-(2,2,2-trifluoroethoxy)phenyl)-4-(pyrimidin-2-ylmethyl)-3,4-dihydrobenzo[f][1,4]oxazepin-5(2H)-one] | 18%

Reference: patent publication US9676760B2, “Fused heterocyclic compounds as ion channel modulators” (Gilead Sciences, Inc., priority 2011, dated 2017)
